According to the NIST ThermoML archive (doi:10.1021/acs.jced.8b00589):

Experiment: xn = mol fraction of the nth substance listed
Details: for surface tension liquid-gas: Ring tensiometer; for viscosity / speed of sound / mass density: 100 kPa, Liquid; for viscosity: Capillary tube (Ostwald / Ubbelohde) method; for speed of sound: Frequency=2 MHz, Linear variable-path acoustic interferometer; for mass density: Vibrating tube method

CCC(C)(C)OC [2-methoxy-2-methylbutane] + CCCCCC
Details | mass density [kg/m3] | speed of sound [m/s] | surface tension liquid-gas [mN/m] | viscosity [mPa·s]
298.15 K, x1 = 0.1632 | 672.8 | 1077.8 | 17.99 | 0.311
298.15 K, x1 = 0.2584 | 683.2 | 1082.2 | 18.21 | 0.318
298.15 K, x1 = 0.3742 | 695.5 | 1087.5 | 18.5 | 0.327
298.15 K, x1 = 0.4276 | 701.6 | 1088.6 | 18.62 | 0.331
298.15 K, x1 = 0.5464 | 714.8 | 1092.8 | 18.73 | 0.346
298.15 K, x1 = 0.6121 | 722.3 | 1096.1 | 18.88 | 0.356
298.15 K, x1 = 0.7457 | 737.2 | 1103.5 | 19.15 | 0.381
298.15 K, x1 = 0.8625 | 750.1 | 1112.2 | 19.42 | 0.402
298.15 K, x1 = 1 | 765.6 | 1118 | 19.72 | 0.424
308.15 K, x1 = 0.1632 | 663.2 | 1035.5 | 16.88 | 0.274
308.15 K, x1 = 0.2584 | 673.8 | 1039.4 | 17.1 | 0.281
308.15 K, x1 = 0.3742 | 686.5 | 1045.1 | 17.4 | 0.293
308.15 K, x1 = 0.4276 | 692.3 | 1046.8 | 17.52 | 0.298
308.15 K, x1 = 0.5464 | 705.2 | 1049.6 | 17.64 | 0.313
308.15 K, x1 = 0.6121 | 712.5 | 1053.2 | 17.79 | 0.322
308.15 K, x1 = 0.7457 | 727.4 | 1060.4 | 18.07 | 0.342
308.15 K, x1 = 0.8625 | 740.7 | 1069.2 | 18.35 | 0.362
308.15 K, x1 = 1 | 756.3 | 1075.6 | 18.66 | 0.39
318.15 K, x1 = 0.1632 | 653.5 | 984.7 | 15.78 | 0.249
318.15 K, x1 = 0.2584 | 663.8 | 988.75 | 16.01 | 0.256
318.15 K, x1 = 0.3742 | 676.6 | 994.36 | 16.33 | 0.266
318.15 K, x1 = 0.4276 | 682.4 | 996.61 | 16.46 | 0.271
318.15 K, x1 = 0.5464 | 695.3 | 1002.4 | 16.58 | 0.284
318.15 K, x1 = 0.6121 | 702.5 | 1006.8 | 16.74 | 0.292
318.15 K, x1 = 0.7457 | 717.7 | 1013.8 | 17.03 | 0.311
318.15 K, x1 = 0.8625 | 730.6 | 1022.8 | 17.32 | 0.331
318.15 K, x1 = 1 | 746.3 | 1030.2 | 17.65 | 0.357
323.15 K, x1 = 0.1632 | 648.6 | 963.82 | 15.22 | 0.239
323.15 K, x1 = 0.2584 | 658.8 | 967.24 | 15.47 | 0.245
323.15 K, x1 = 0.3742 | 671.5 | 971.83 | 15.78 | 0.254
323.15 K, x1 = 0.4276 | 677.3 | 973.34 | 15.92 | 0.258
323.15 K, x1 = 0.5464 | 690.4 | 977.27 | 16.04 | 0.27
323.15 K, x1 = 0.6121 | 697.6 | 980.49 | 16.2 | 0.277
323.15 K, x1 = 0.7457 | 712.5 | 984.8 | 16.5 | 0.294
323.15 K, x1 = 0.8625 | 725.8 | 994.84 | 16.8 | 0.312
323.15 K, x1 = 1 | 741.4 | 1003 | 17.13 | 0.335
328.15 K, x1 = 0.1632 | 643.6 | 942.3 | 14.67 | 0.23
328.15 K, x1 = 0.2584 | 653.7 | 945.14 | 14.92 | 0.235
328.15 K, x1 = 0.3742 | 666.5 | 949.52 | 15.24 | 0.244
328.15 K, x1 = 0.4276 | 672.3 | 951.24 | 15.38 | 0.248
328.15 K, x1 = 0.5464 | 685.3 | 955.05 | 15.5 | 0.259
328.15 K, x1 = 0.6121 | 692.6 | 958.72 | 15.67 | 0.266
328.15 K, x1 = 0.7457 | 707.5 | 963.63 | 15.97 | 0.283
328.15 K, x1 = 0.8625 | 720.8 | 974.08 | 16.27 | 0.301
328.15 K, x1 = 1 | 736.5 | 985.22 | 16.62 | 0.323
